For 27 compounds, IC50 results are on record in US20240083861A1, “HSD17B13 INHIBITORS AND USES THEREOF” (FL2022-001, Inc., priority 2020, published 2024).

The structures appear in SMILES notation.

The assay deals with T1, Recombinant human HSD17B13 enzyme (Homo sapiens, UniProt Q7Z5P4).
T1 sequence (Q7Z5P4 20-300): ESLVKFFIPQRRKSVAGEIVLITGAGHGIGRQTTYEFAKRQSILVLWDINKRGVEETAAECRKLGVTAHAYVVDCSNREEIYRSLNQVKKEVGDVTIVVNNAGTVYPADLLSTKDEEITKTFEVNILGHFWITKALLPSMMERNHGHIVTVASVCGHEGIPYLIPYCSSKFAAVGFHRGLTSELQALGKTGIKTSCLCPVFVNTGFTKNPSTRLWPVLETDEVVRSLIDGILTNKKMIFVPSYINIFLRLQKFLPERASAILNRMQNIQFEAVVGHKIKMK
The assay is described as follows: HSD17b13 NAD(P)H-Glo biochemical assay. To be noted: 50 uM estradiol, 1 mM NAD+, NAD(P)H-Glo luminescence; read-out: HSD17β13 IC50. Summed up:
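Recombinant human HSD17B13 in 20 mM Tris pH7.4 with 0.002% Tween-20 and 0.02% BSA was preincubated with inhibitor for 20 minutes at RT. The reaction ran 3 hours at 37° C with 50 uM estradiol and 1 mM NAD+ (final). NADH formed was detected by NAD(P)H-Glo luminescence after 1 hour at RT.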
In the case of `Cn1nc(-c2cc(C(F)(F)F)c(F)c(O)c2F)c2cnc(N3CCCC34CCOCC4)cc21` [Compound 9.99, 2,6-Difluoro-3-(1-methyl-6-(8-oxa-1-azaspiro[4.5]decan-1-yl)-1H-pyrazolo[4,3-c]pyridin-3-yl)-5-(trifluoromethyl)phenol], the IC50 was under 100 nM.

For the compound `Cn1nc(-c2cc(C(F)(F)F)c(F)c(O)c2F)c2cnc(N3[C@@H]4CNC[C@H]3COC4)cc21` [Compound 9.100, 3-(6-(cis-3-Oxa-7,9-diazabicyclo[3.3.1]nonan-9-yl)-1-methyl-1H-pyrazolo[4,3-c]pyridin-3-yl)-2,6-difluoro-5-(trifluoromethyl)phenol], the half-maximal inhibitory concentration (IC50) was 100 to 1000 nM. As to `Cn1nc(-c2cc(C(F)(F)F)c(F)c(O)c2F)c2cnc(N3CCOCC3=O)cc21` [Compound 9.101, 4-(3-(2,4-Difluoro-3-hydroxy-5-(trifluoromethyl)phenyl)-1-methyl-1H-pyrazolo[4,3-c]pyridin-6-yl)morpholin-3-one], the half-inhibitory concentration (IC50) was in the range of 100 to 1000 nM. `CN1CCN(c2cc3c(cn2)c(-c2cc(C(F)(F)F)c(F)c(O)c2F)nn3C)C(=O)C1` [Compound 9.102, 1-(3-(2,4-Difluoro-3-hydroxy-5-(trifluoromethyl)phenyl)-1-methyl-1H-pyrazolo[4,3-c]pyridin-6-yl)-4-methylpiperazin-2-one]: the IC50 fell in the range of 100 to 1000 nM. For `CN(c1nc2c(cc1F)c(-c1cc(C(F)(F)F)c(F)c(O)c1F)nn2C)C1CCOCC1` [Compound 9.103, 2,6-Difluoro-3-(5-fluoro-1-methyl-6-(methyl(tetrahydro-2H-pyran-4-yl)amino)-1H-pyrazolo[3,4-b]pyridin-3-yl)-5-(trifluoromethyl)phenol], the IC50 was under 100 nM. The same measure for `Cn1nc(-c2cc(C(F)(F)F)c(F)c(O)c2F)c2cc(F)c(N3CCN(S(C)(=O)=O)CC34CC4)nc21` [Compound 9.104, 2,6-Difluoro-3-(5-fluoro-1-methyl-6-(7-(methylsulfonyl)-4,7-diazaspiro[2.5]octan-4-yl)-1H-pyrazolo[3,4-b]pyridin-3-yl)-5-(trifluoromethyl)phenol]: under 100 nM; for `Cn1nc(-c2cc(C(F)(F)F)c(F)c(O)c2F)c2cc(F)c(N3CCCOCC34CC4)nc21` [Compound 9.105, 2,6-Difluoro-3-(5-fluoro-1-methyl-6-(8-oxa-4-azaspiro[2.6]nonan-4-yl)-1H-pyrazolo[3,4-b]pyridin-3-yl)-5-(trifluoromethyl)phenol]: under 100 nM. Take `COC1CCN(c2nc3c(cc2F)c(-c2cc(C(F)(F)F)c(F)c(O)c2F)nn3C)CC1` [Compound 9.106, 2,6-Difluoro-3-(5-fluoro-6-(4-methoxypiperidin-1-yl)-1-methyl-1H-pyrazolo[3,4-b]pyridin-3-yl)-5-(trifluoromethyl)phenol]: the IC50 was under 100 nM.

Consider `Cn1nc(-c2cc(C(F)(F)F)c(F)c(O)c2F)c2cc(F)c(N3CCOCC34CCC4)nc21` [Compound 9.107, 2,6-Difluoro-3-(5-fluoro-1-methyl-6-(8-oxa-5-azaspiro[3.5]nonan-5-yl)-1H-pyrazolo[3,4-b]pyridin-3-yl)-5-(trifluoromethyl)phenol], for which the IC50 is under 100 nM. For `Cn1nc(-c2cc(C(F)(F)F)c(F)c(O)c2F)c2cc(F)c(N3CCOC4(CCC4)C3)nc21` [Compound 9.108, 2,6-Difluoro-3-(5-fluoro-1-methyl-6-(5-oxa-8-azaspiro[3.5]nonan-8-yl)-1H-pyrazolo[3,4-b]pyridin-3-yl)-5-(trifluoromethyl)phenol], the IC50 was under 100 nM.

As for `Cn1nc(-c2ccc(F)c(O)c2F)c2cnc(N3CCOC4(CCC4)C3)cc21` [Compound 9.109, 2,6-Difluoro-3-(1-methyl-6-(5-oxa-8-azaspiro[3.5]nonan-8-yl)-1H-pyrazolo[4,3-c]pyridin-3-yl)phenol], the IC50 was 100 to 1000 nM.

As to `Cn1nc(-c2cc(C(F)(F)F)c(F)c(O)c2F)c2cnc(N3CCOCC34CCC4)nc21` [Compound 9.110, 2,6-Difluoro-3-(1-methyl-6-(8-oxa-5-azaspiro[3.5]nonan-5-yl)-1H-pyrazolo[3,4-d]pyrimidin-3-yl)-5-(trifluoromethyl)phenol], the concentration for half-maximal inhibition (IC50) was under 100 nM. Turning to `Cn1nc(-c2cc(C(F)(F)F)c(F)c(O)c2F)c2cnc(N3CCNCC34CC4)cc21` [Compound 9.111, 2,6-Difluoro-3-(1-methyl-6-(4,7-diazaspiro[2.5]octan-4-yl)-1H-pyrazolo[4,3-c]pyridin-3-yl)-5-(trifluoromethyl)phenol], the concentration for half-maximal inhibition (IC50) was under 100 nM. `CN1CCN(c2cc3c(cn2)c(-c2cc(C(F)(F)F)c(F)c(O)c2F)nn3C)C2(CC2)C1=O` [Compound 9.112, 4-(3-(2,4-Difluoro-3-hydroxy-5-(trifluoromethyl)phenyl)-1-methyl-1H-pyrazolo[4,3-c]pyridin-6-yl)-7-methyl-4,7-diazaspiro [2.5]octan-8-one]: the IC50 was under 100 nM. For the compound `CCN1CCN(c2cc3c(cn2)c(-c2cc(C(F)(F)F)c(F)c(O)c2F)nn3C)C(=O)C1` [Compound 9.113, 1-(3-(2,4-Difluoro-3-hydroxy-5-(trifluoromethyl)phenyl)-1-methyl-1H-pyrazolo[4,3-c]pyridin-6-yl)-4-ethylpiperazin-2-one], the half-maximal inhibitory concentration (IC50) is 100 to 1000 nM. Consider `Cn1nc(-c2cc(C(F)(F)F)c(F)c(O)c2F)c2cnc(N3CC(=O)NCC34CC4)cc21` [Compound 9.114, 4-(3-(2,4-Difluoro-3-hydroxy-5-(trifluoromethyl)phenyl)-1-methyl-1H-pyrazolo[4,3-c]pyridin-6-yl)-4,7-diazaspiro[2.5]octan-6-one], for which the IC50 is under 100 nM. For `Cn1nc(-c2cc(C(F)(F)F)c(F)c(O)c2F)c2cnc(N3CC4(CC4)NCC3=O)cc21` [Compound 9.115, 7-(3-(2,4-Difluoro-3-hydroxy-5-(trifluoromethyl)phenyl)-1-methyl-1H-pyrazolo[4,3-c]pyridin-6-yl)-4,7-diazaspiro[2.5]octan-6-one], the IC50 was in the range of 100 to 1000 nM. As to `CN(c1cc2c(cc1F)c(-c1cc(C(F)(F)F)c(F)c(O)c1F)nn2C)C1CCOCC1` [Compound 9.116, 2,6-Difluoro-3-(5-fluoro-1-methyl-6-(methyl(tetrahydro-2H-pyran-4-yl)amino)-1H-indazol-3-yl)-5-(trifluoromethyl)phenol], the 50% inhibitory concentration (IC50) was under 100 nM. For the compound `Cn1nc(-c2cc(C(F)(F)F)c(F)c(O)c2F)c2cc(F)c(N3CCN(S(C)(=O)=O)CC34CC4)cc21` [Compound 9.117, 2,6-Difluoro-3-(5-fluoro-1-methyl-6-(7-(methylsulfonyl)-4,7-diazaspiro[2.5]octan-4-yl)-1H-indazol-3-yl)-5-(trifluoromethyl)phenol], the IC50 was under 100 nM.

Consider `Cn1nc(-c2cc(C(F)(F)F)c(F)c(O)c2F)c2c(F)cc(N3CCOCC34CC4)cc21` [Compound 9.118, 2,6-Difluoro-3-(4-fluoro-1-methyl-6-(7-oxa-4-azaspiro[2.5]octan-4-yl)-1H-indazol-3-yl)-5-(trifluoromethyl)phenol], for which the IC50 was under 100 nM.

Regarding `Cn1nc(-c2cc(C(F)(F)F)c(F)c(O)c2F)c2ncc(N3CCOCC34CC4)cc21` [Compound 9.119, 2,6-Difluoro-3-(1-methyl-6-(7-oxa-4-azaspiro[2.5]octan-4-yl)-1H-pyrazolo[4,3-b]pyridin-3-yl)-5-(trifluoromethyl)phenol], the concentration for half-maximal inhibition (IC50) is under 100 nM. As to `CN(c1cc2c(nn1)c(-c1cc(C(F)(F)F)c(F)c(O)c1F)nn2C)C1CCOCC1` [Compound 9.120, 2,6-Difluoro-3-(1-methyl-6-(methyl(tetrahydro-2H-pyran-4-yl)amino)-1H-pyrazolo[4,3-c]pyridazin-3-yl)-5-(trifluoromethyl)phenol], the IC50 was in the range of 100 to 1000 nM. With `Cn1nc(-c2cc(C(F)(F)F)c(F)c(O)c2F)c2cc(F)c(N3CCOCC34CC4)cc21` [Compound 9.121, 2,6-Difluoro-3-(5-fluoro-1-methyl-6-(7-oxa-4-azaspiro[2.5]octan-4-yl)-1H-indazol-3-yl)-5-(trifluoromethyl)phenol], the IC50 was under 100 nM. Consider `Cn1nc(-c2cc(C(F)(F)F)c(F)c(O)c2F)c2cnc(N3CCN(S(C)(=O)=O)CC34CC4)nc21` [Compound 9.122, 2,6-Difluoro-3-(1-methyl-6-(7-(methylsulfonyl)-4,7-diazaspiro[2.5]octan-4-yl)-1H-pyrazolo[3,4-d]pyrimidin-3-yl)-5-(trifluoromethyl)phenol], for which the IC50 was under 100 nM. As to `Cn1nc(-c2cc(C(F)(F)F)c(F)c(O)c2F)c2cnc(N(Cc3ccccc3)C3CCOCC3)cc21` [Compound 9.123, 3-(6-(Benzyl(tetrahydro-2H-pyran-4-yl)amino)-1-methyl-1H-pyrazolo[4,3-c]pyridin-3-yl)-2,6-difluoro-5-(trifluoromethyl)phenol], the concentration for half-maximal inhibition (IC50) is under 100 nM. As to `Cn1nc(-c2cc(C(F)(F)F)c(F)c(O)c2F)c2cnc(N3CCS(=O)(=O)CC34CCC4)cc21` [Compound 9.124, 5-(3-(2,4-Difluoro-3-hydroxy-5-(trifluoromethyl)phenyl)-1-methyl-1H-pyrazolo[4,3-c]pyridin-6-yl)-8-thia-5-azaspiro[3.5]nonane 8,8-dioxide], the IC50 was under 100 nM. `Cn1nc(-c2cc(C(F)(F)F)c(F)c(O)c2F)c2cnc(N3CCS(=O)(=O)CC3(C)C)cc21` [Compound 9.125, 4-(3-(2,4-Difluoro-3-hydroxy-5-(trifluoromethyl)phenyl)-1-methyl-1H-pyrazolo[4,3-c]pyridin-6-yl)-3,3-dimethylthiomorpholine 1,1-dioxide]: the half-inhibitory concentration (IC50) was 100 to 1000 nM.
